Laboratory results as given in patent US12240890B2, “Compositions and methods for treating and/or preventing pathogenic fungal infection and for maintenance of microbiome commensalism” (priority 2017, dated 2025).
Values joined by “and” are separate entries in the source; they are usually repeats but may differ in a detail not shown here. Equal values may be shown once.

The substances below were run on C. albicans strain SC5314 (assay: crystal violet based biofilm assay (24 hours, OD600)). Details: 10 μM peptide; biofilm OD600 values normalized to vehicle control, 24 hours.
Format: cell-based, Candida albicans
Procedure: FIG. 13. […] Biofilm formation was measured in an assay that quantitates biofilms by staining with a crystal violet dye. The amount of dye absorbed by the biofilm positively correlates with amount of biofilm present. Amount of dye is measured via an optical density reading at a wavelength of 600 nm (OD600). Biofilm formation is measured over 24 hours in the presence or absence of peptides at 10, 30, or 40 uM concentrations.
(§1) Candida albicans (sc3514 cited in: Romanowski et al. PLOS One 7: e30119, 2012.: incorporated by reference in its entirety) and Candida tropicalis (ATCC #13803) were maintained in frozen glycerol stocks at −80° C. and streaked out on yeast-peptone-dextrose (YPD) agar plates for 48 hours at 30° C. prior to use. Single colonies were selected and cultured in YPD media at 30° C. Biofilm assays were performed using crystal violet straining (Taff et al. Med Mycol 50:214-218, 2012.: incorporated by reference in its entirety) in the presence of 10-20 uM of respective peptides. To induce hyphal growth, strains were placed in YPD+5% FBS or RPMI media at 37° C. for 4 hours. To image hyphal membrane disruption, the DNA binding fluorescent dye, propidium iodide (PI), was added to wells strains in the presence of peptides and imaged under bright field and far red fluorescent conditions. […] To investigate Candida albican virulence gene expression, 10 μL of a 1.0 OD600 culture were placed in 1 mL RPMI at 37° C. with shaking for 8 hours. Cultures were centrifuged at 3000×g for 5 minutes and RNA isolation was performed as described below.
Antifungal activity of peptides described in this application was tested by performing a crystal violet based biofilm assay. In this assay, Candida albicans is induced to form a biofilm in a 96-well plate for 24 hours in the presence or absence of peptide. Biofilm formation is quantitated through crystal violet staining and solubilization followed by optical density reading. […] Data are OD600 values normalized to appropriate within experiment vehicle control. Statistical analysis was performed via 2-Way ANOVA with multiple comparisons post-test. Significance is denoted by: *=p<0.05; **=p<0.01; ***-p<0.001; ****=p<0.0001. ns=not significant.

Substance	Mean Normalized to vehicle control
SPEELNRYYASLRHYLNLVTRQLR [AVpeptide 6]	0.97
SPEELNRYYASLRHYLNLVTRQLY [AVpeptide 21, (R35L)]	0.92
SPEELNRYYASLRHYLNLVTRQR [AVpeptide 24, (PYY13-35)]	0.83
SPEELNRYYASLRHYLNLVTRQRR [AVpeptide 5, (Y36R)]	0.64 and 0.76
SPEELNRYYASLRHYLNLVTRQVY [AVpeptide 8, (R35V)]	0.97
SPEELNRYYASLRHYLNLVTRQYY [AVpeptide 7, (R35Y)]	0.97
SPEELNRYYASLRHYLRLVTRQRY [AVpeptide 22, (N29R)]	0.84
SPEELNRYYASLRHYYNLVTRQRY [AVpeptide 12, (L28Y)]	1.01
SPEELNRYYASSRHYLNLVTRQRY [AVpeptide 19, (L24S)]	1.06
SPEELNRYYLALRHYLNLVTRQRY [AVpeptide 31, (A22L, S23A)]	0.05
SPEELNRYYLSLRHYLNLVTRQRY [AVpeptide 20, (A22L)]	0.47 and 0.52 and 0.62
SPEELNRYYTALRHYLNLVTRQRY [AVpeptide 30, (A22T, S23A)]	0.16 and 0.10
SPEQLNRYYASLRHYLNLVTRERY [AVpeptide 13, (E16Q, Q34A)]	0.95
YPEEYNRYYASYRHYLNHVTRQRY [AVpeptide 16, (S13Y L17Y L24Y L30H)]	1.06
YPEEYNRYYASYRHYLNLVTRQRY [AVpeptide 17, (S13Y L17Y L24Y)]	0.91

Same assay, conditions: 30 μM peptide; biofilm OD600 values normalized to vehicle control, 24 hours

Substance	Mean Normalized to vehicle control
SPEELNRYYASLRHYLNLVTRQLR [AVpeptide 6]	0.52
SPEELNRYYASLRHYLNLVTRQLY [AVpeptide 21, (R35L)]	0.02
SPEELNRYYASLRHYLNLVTRQR [AVpeptide 24, (PYY13-35)]	0.71
SPEELNRYYASLRHYLNLVTRQRR [AVpeptide 5, (Y36R)]	0.28 and 0.53
SPEELNRYYASLRHYLNLVTRQVY [AVpeptide 8, (R35V)]	0.71
SPEELNRYYASLRHYLNLVTRQYY [AVpeptide 7, (R35Y)]	0.08
SPEELNRYYASLRHYLRLVTRQRY [AVpeptide 22, (N29R)]	0.37
SPEELNRYYASLRHYYNLVTRQRY [AVpeptide 12, (L28Y)]	0.46
SPEELNRYYASSRHYLNLVTRQRY [AVpeptide 19, (L24S)]	1.01
SPEELNRYYLALRHYLNLVTRQRY [AVpeptide 31, (A22L, S23A)]	1.00
SPEELNRYYLSLRHYLNLVTRQRY [AVpeptide 20, (A22L)]	1.07 and 1.25 and 1.03
SPEELNRYYTALRHYLNLVTRQRY [AVpeptide 30, (A22T, S23A)]	0.02
SPEQLNRYYASLRHYLNLVTRERY [AVpeptide 13, (E16Q, Q34A)]	0.14
YPEEYNRYYASYRHYLNHVTRQRY [AVpeptide 16, (S13Y L17Y L24Y L30H)]	1.02
YPEEYNRYYASYRHYLNLVTRQRY [AVpeptide 17, (S13Y L17Y L24Y)]	0.94

Same assay, conditions: 40 μM peptide; biofilm OD600 values normalized to vehicle control, 24 hours

Substance	Mean Normalized to vehicle control
SPEELNRYYASLRHYLNLVTRQLR [AVpeptide 6]	0.28
SPEELNRYYASLRHYLNLVTRQVY [AVpeptide 8, (R35V)]	0.31
SPEELNRYYASLRHYLNLVTRQYY [AVpeptide 7, (R35Y)]	0.33
SPEELNRYYASLRHYLRLVTRQLY [AVpeptide 9, (N29R; R35L)]	0.05
SPEELNRYYASLRHYYNLVTRQRY [AVpeptide 12, (L28Y)]	0.15
SPEELNRYYASSRHYLNLVTRQRY [AVpeptide 19, (L24S)]	0.97
SPEELNRYYLSLRHYLNLVTRQRY [AVpeptide 20, (A22L)]	1.04
SPEQLNRYYASLRHYLNLVTRERY [AVpeptide 13, (E16Q, Q34A)]	0.07
YPEEYNRYYASYRHYLNHVTRQRY [AVpeptide 16, (S13Y L17Y L24Y L30H)]	0.95

Same assay, conditions: crystal violet staining, 10-20 uM of respective peptides

Substance	inhibition of biofilm formation
Magainin-2	inhibit biofilm formation

Same assay, conditions: in vitro, Candida albicans

Substance	efficacy in inhibiting formation of biofilm relative to PYY13-36
SPEELNRYYASLRHYLNLVTRQLR [AVpeptide 6]	reduced efficacy
SPEELNRYYASLRHYLNLVTRQR [AVpeptide 24, (PYY13-35)]	reduced efficacy
SPEELNRYYASLRHYLNLVTRQVY [AVpeptide 8, (R35V)]	reduced efficacy
SPEELNRYYASSRHYLNLVTRQRY [AVpeptide 19, (L24S)]	reduced efficacy
SPEELNRYYLSLRHYLNLVTRQRY [AVpeptide 20, (A22L)]	increased inhibition of biofilm formation

What follows are substances tested on Candida albicans hyphae (assay: propidium iodide hyphal permeability assay). Details: N terminus FITC label, during PI assay.
Format: cell-based
Procedure: as §1
Magainin-2 compromises fungal growth by inserting into and permeabilizing the fungal cell wall. […] Permeabilization of the fungal cell wall was determined by uptake of propidium iodide (PI), a dye that is excluded by intact viable cells. […]

Substance	localization of labeled peptide
FITC-labeled PYY: fluorescently (N terminus FITC) labeled PYY	localized exclusively to the same terminal hyphal cells that take up PI

These substances were tested on C. albicans (assay: respiration of C. albicans). Details: hyphal form.
Format: cell-based, Candida albicans

Substance	respiration
Magainin-2	suppressed respiration

Same assay, conditions: yeast form

Substance	respiration
Magainin-2	suppressed activity

These substances were tested on C. tropicalis (assay: respiration of C. tropicalis). Details: hyphal form.
Format: cell-based, Candida tropicalis

Substance	respiration
Magainin-2	suppressed respiration

Same assay, conditions: yeast form

Substance	respiration
Magainin-2	suppressed activity

Each substance was assayed on PYY (assay: ex vivo ileal tissue culture and PYY ELISA). Details: Germ-free (GF) tissues.
Set-up: species or system mice
Procedure: Tissues were harvested from conventional or germ-free WT mice. Three cm sections of distal ileum were dissected from the mesentery and ligated on one end. Next, Krebs buffer (pH 7.4) was inoculated with either LPS (100 ng/mL) or Carbamoylcholine (10 um) and sealed in the ileal section and incubated in Krebs at 37° C. for 30 minutes. Next, the luminal solutions were retrieved and centrifuged at 3000×g for 3 minutes to remove particulate.

Substance	luminal PYY release
LPS	released only in response to Carb

Same assay, conditions: Specific-Pathogen Free (SPF) tissues

Substance	luminal PYY release
LPS	released PYY

Each substance was assayed on Candida albicans (assay: Candida albicans culture growth). Details: hyphal inducing conditions (broth culture containing serum).
Format: cell-based

Substance	C. albicans culture growth
Magainin-2	inhibited culture growth
PYY1-13: PYY peptide composed of amino acids 1-13 (YPIKPEAPGEDAS)	displayed no antifungal properties

These substances were tested on Candida albicans virulence genes (assay: virulence gene expression by qRT-PCR). Details: hyphal form, RPMI at 37° C., compared with scrambled peptide controls.
Format: cell-based
Procedure: as §1

Substance	virulence gene expression
Magainin-2	induced expression of several virulence genes
